Our source for the IC50, Ki and Kd values is patent US20240391959A1, “BICYCLIC PEPTIDE LIGANDS […] FOR TRANSFERRIN RECEPTOR 1 (TfR1)” (BicycleTx Limited, priority 2020, published 2024).

Assay [1] deals with T1, human TfR1 (Homo sapiens, UniProt P02786). Nature of the assay: TfR1 inhibition assay (Alpha assay, transferrin inhibition). To be noted: inhibition of fluorescently labelled human transferrin binding; read-out: Geomean IC50 (μM) Human TfR1. The protocol: TfR1 inhibitory activity of peptides of the invention (IC50) was determined using Alpha assay, in accordance with the following method. Proteins, peptides and Alpha reagents were prepared to 5× concentration and 5 μl of each reagent added to 25 μl total volume in white 384-well Optiplate to make 1× final concentration. Fluorescently labelled human transferrin (Invitrogen, T2871) was diluted to 2.5 nM in 25 mM HEPES with 100 mM NaCl, 4 mM CaCl2, 0.5% BSA and 0.05% P20, pH 7.4. Human or cynomolgus TfR1 protein was diluted to 50 nM and unlabelled human transferrin (R&D Systems, 2914-HT) was diluted to 500 nM in the same assay buffer. Non-labelled peptides from DMSO stock were diluted 20-fold in the same assay buffer, followed by 1 in 3 serial dilution in assay buffer containing 5% DMSO to give 11-different concentrations. 5 μl fluorescently labelled transferrin, 5 μl human or cynomolgus TfR1, 5 μl non-labelled peptide or unlabelled human transferrin (R&D Systems, 2914-HT) were added to white 384-well Optiplate and incubated for 30 min. Anti-FITC Acceptor (PerkinElmer, AL127) was diluted 50-fold in assay buffer, 5 μl added to assay plate and incubated for 30 min. […] Luminescence measurements were conducted on a BMG PHERAstar FS or FSX equipped with an AlphaScreen 520-620 module at 25° C. following excitation at 680 nm. […]
Target sequence in this assay (P02786 whole entry): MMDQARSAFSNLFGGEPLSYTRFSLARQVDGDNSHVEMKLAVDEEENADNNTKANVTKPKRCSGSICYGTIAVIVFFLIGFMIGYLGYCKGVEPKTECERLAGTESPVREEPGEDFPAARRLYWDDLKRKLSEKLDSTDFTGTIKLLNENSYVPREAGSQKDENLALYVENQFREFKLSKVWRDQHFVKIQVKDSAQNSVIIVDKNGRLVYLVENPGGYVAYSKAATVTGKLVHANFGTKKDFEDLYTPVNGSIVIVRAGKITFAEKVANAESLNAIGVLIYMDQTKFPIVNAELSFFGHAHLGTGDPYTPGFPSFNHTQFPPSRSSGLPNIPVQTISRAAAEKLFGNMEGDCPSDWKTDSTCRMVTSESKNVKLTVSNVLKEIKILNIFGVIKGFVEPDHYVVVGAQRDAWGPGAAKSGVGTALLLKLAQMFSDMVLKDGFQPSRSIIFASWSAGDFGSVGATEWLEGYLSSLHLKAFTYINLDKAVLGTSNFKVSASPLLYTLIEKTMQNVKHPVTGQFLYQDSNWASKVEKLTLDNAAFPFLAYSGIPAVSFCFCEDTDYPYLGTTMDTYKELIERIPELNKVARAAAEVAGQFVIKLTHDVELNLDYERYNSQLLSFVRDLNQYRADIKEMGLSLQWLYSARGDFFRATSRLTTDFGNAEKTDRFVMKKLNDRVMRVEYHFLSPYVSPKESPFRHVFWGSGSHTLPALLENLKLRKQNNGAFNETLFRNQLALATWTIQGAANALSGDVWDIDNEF

The target of assay [2] is T1, human TfR1. Nature of the assay: biochemical. It is filed as binding. On the set-up: His6-tagged TfR1 (a.a. 89-760) (ACRO Biosystems, CD1-H5243 and TFR-C524a); His6; purchased R&D Systems or Acro Biosystems 2474-TR or CD1-H5243.
Target sequence in this assay (P02786 89-760): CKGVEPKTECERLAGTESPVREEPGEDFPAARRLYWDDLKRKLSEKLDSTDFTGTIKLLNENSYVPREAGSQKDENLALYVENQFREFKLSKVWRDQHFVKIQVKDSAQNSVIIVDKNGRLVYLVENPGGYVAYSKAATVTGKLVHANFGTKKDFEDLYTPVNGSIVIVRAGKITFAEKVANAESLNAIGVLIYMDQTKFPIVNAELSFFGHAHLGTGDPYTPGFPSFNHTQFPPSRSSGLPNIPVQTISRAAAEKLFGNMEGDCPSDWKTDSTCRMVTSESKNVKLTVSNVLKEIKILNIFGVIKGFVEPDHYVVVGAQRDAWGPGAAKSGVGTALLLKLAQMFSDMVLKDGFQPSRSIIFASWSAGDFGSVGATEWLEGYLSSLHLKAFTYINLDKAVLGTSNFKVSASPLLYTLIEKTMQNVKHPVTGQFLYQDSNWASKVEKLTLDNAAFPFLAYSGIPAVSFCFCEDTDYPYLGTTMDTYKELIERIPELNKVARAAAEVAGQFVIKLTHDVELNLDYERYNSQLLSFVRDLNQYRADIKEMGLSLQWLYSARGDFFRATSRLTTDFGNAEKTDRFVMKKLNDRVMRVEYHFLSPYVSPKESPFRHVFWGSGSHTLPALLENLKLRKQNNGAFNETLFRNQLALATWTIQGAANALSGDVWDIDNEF
Assay [3] deals with cynomolgus TfR1. It is filed as binding.
Assay [4] has as its target cynomolgus TfR1. The assay is classed as binding. The source holds these as a separate data set.
In assay [5] the target is T1, human TfR1. In words: biochemical. It is filed as binding. Also noted: His6-tagged TfR1 (a.a. 89-760) (ACRO Biosystems, CD1-H5243 and TFR-C524a); His6; purchased R&D Systems or Acro Biosystems 2474-TR or CD1-H5243. To be noted: Human TfR1 Kd (nM).
Target sequence in this assay (P02786 89-760): as above

SMILES strings stand for the structures. Starred links: 1 amine or outer side, 2 acyl side, 3 side chain; linkers in the order of their positions; H or OH if unused. Positions of bridges follow the written chain, without caps; N, C: chain ends. Residues, ends and D or L forms follow the SMILES beside them. TATA = O=C(CC[*:1])N1CN(C(=O)CC[*:2])CN(C(=O)CC[*:3])C1; TATB = O=C(C[*:1])N1CN(C(=O)C[*:2])CN(C(=O)C[*:3])C1

For orientation: IC50 means the concentration at which inhibition is half-maximal. For the compound `CC[C@H](C)[C@@H]1NC(=O)[C@H](Cc2ccccc2)NC(=O)[C@H](C)NC(=O)[C@H](CC(C)C)NC(=O)CNC(=O)[C@@H]2CSCCC(=O)N3CN(CN(C3)C(=O)CCSC[C@@H](C(=O)N[C@@H](C)C(N)=O)NC(=O)[C@H](CCC(=O)O)NC1=O)C(=O)CCSC[C@H](NC(=O)[C@H](C)N)C(=O)N[C@@H](CCCNC(=N)N)C(=O)N[C@@H](CCC(=O)O)C(=O)N[C@@H](Cc1ccccc1)C(=O)N[C@@H](Cc1ccccc1)C(=O)N[C@@H](CC(=O)O)C(=O)N[C@@H]([C@@H](C)O)C(=O)N2` [BCY12452, A-(SEQ ID NO: 2)-A] (H-ACREFFDTCGLAFIECA-NH2; linker 2-9-16 via TATA; N-terminus and C-terminus assumed), in assay [1], the IC50 turned out to be 1.21 µM.
For orientation: Ki means the dissociation constant of the complex between target and ligand, obtained from inhibition or displacement. The low end stands for a stronger hold on the target, the high end for a looser hold on the target. The Kd is the constant that tells how readily two partners part at equilibrium. Low readings indicate tighter binding, high ones weaker binding. As to `CC[C@H](C)[C@@H]1NC(=O)[C@@H]2CSCC(=O)N3CN(CN(C3)C(=O)CSC[C@@H](C(=O)N[C@@H](C)C(N)=O)NC(=O)[C@H](Cc3ccc(O)cc3)NC(=O)[C@H](CO)NC1=O)C(=O)CSC[C@H](NC(=O)[C@H](C)N)C(=O)N[C@@H](CO)C(=O)N1CCC[C@H]1C(=O)N[C@@H](CC(=O)O)C(=O)N[C@@H](C)C(=O)N[C@@H](Cc1c[nH]cn1)C(=O)N[C@@H](CC(C)C)C(=O)NCC(=O)N2` [BCY15468, A-(SEQ ID NO: 9)-A], the Ki in assay [2] (Human TfR1 Ki (nM)) was determined as 103 nM; in assay [4] it was 1230 nM. Moreover, the Kd in assay [3] amounted to 4020 nM; in assay [5] it was 29 nM.
Regarding `CC[C@H](C)[C@@H]1NC(=O)[C@@H]2CSCC(=O)N3CN(CN(C3)C(=O)CSC[C@H](NC(C)=O)C(=O)N[C@@H](CO)C(=O)N3CCC[C@H]3C(=O)N[C@@H](CC(=O)O)C(=O)N[C@@H](C)C(=O)N[C@@H](Cc3c[nH]cn3)C(=O)N[C@@H](CC(C)C)C(=O)NCC(=O)N2)C(=O)CSC[C@@H](C(N)=O)NC(=O)[C@H](Cc2ccc(O)cc2)NC(=O)[C@H](CO)NC1=O` [BCY15891, Ac-(SEQ ID NO: 9)] (Ac-CSPDAHLGCISYC-NH2; linker 1-9-13 via TATB), the values for the Ki in assay [2] (Geomean Ki (μM)) and in assay [2] (Human TfR1 Ki (nM)) were 67 nM and 94 nM, respectively. Further, the results for the Kd in assay [3] and in assay [5] were 3990 nM and 46 nM, respectively.
